What was measured:
[1] = system: A-172 human glioblastoma cancer cells; assay: A-172 cell attachment to peptide coated surfaces (images and MTS assay); type: cell-based; settings: A-172 cells, images and MTS assay (FIG. 4A and FIG. 4B); compared with BD BioCoat fibronectin surface
Experimental: FIG. 4A is an image of A-172 human glioblastoma cancer cells attached to a surface that has a coating thereon of […] (SEQ ID NO: 8) referred to therein as “DA2”, […] (SEQ ID NO: 9) referred to therein as “DA4”, […] (SEQ ID NO: 10) referred to therein as “DA1”, […] (SEQ ID NO: 11) referred to therein as “DA3”.
To explore the ability of a surface modified by the compound of the present invention to mimic one or more functional characteristics of a fibronectin coated surface, cells were seeded and monitored on both such surfaces under the same culture conditions. In brief, LNCaP cells, MIA-PaCa-2, A-172, or RKO cells from ATCC were cultured according to supplier's instructions. LNCaP were cultured in RPMI-1640 Medium (ATCC Catalog No. 30-2001) supplemented with 10% fetal bovine serum. MIA-PaCa-2 and A-172 cells were grown in DMEM (Invitrogen cat #11885-084) supplemented with 10% fetal bovine serum. RKO cells were cultured in EMEM (ATCC cat#30-2003) supplemented with 10% fetal bovine serum. Cells were cultured at 37° C. in a humidified incubator with 5% CO2. For seeding, media was removed, cells were washed with PBS, and 3 ml of 0.25% Trypsin-EDTA was added to the cells in T-75 flask. Flasks were examined under the microscope, once cells detached from the surface, 10 ml culture media was added to neutralize Trypsin. Cells were transferred to a 15 ml. BD Falcon tube and centrifuged at 200×g for 10 min. Supernatant was removed and the cell pellet washed once with DMEM (Invitrogen cat #11885-084) having 200 microgram/ml BSA. Cells were resuspended in DMEM having 200 microgram/ml BSA and seeded at 50,000 cells/cm^2 in 1.0 ml media per well of a 24 well plate. The culture surface was either a surface modified by the compound […] (SEQ ID NO: 7) or BD BioCoat fibronectin which served as a positive control. Additionally, BD tissue culture treated surface served as negative control. Cells were incubated for 24 hr at 37° C. in a humidified incubator with 5% CO2.
In addition to the aforementioned visual analysis, MTS analysis was carried out to quantify the degree of cell attachment. In brief, media was removed by inverting the plate and 300 μl complete media containing MTS (Promega cat #G3582) was added to each well of a 24 well plate. Cells were incubated for 1 hr at 37° C. in a humidified incubator at 5% CO2. Following incubation, 0.1 ml media was transferred to BD Falcon™ 96 well plate and absorbance was measured at 490 nm.

LNCaP cells [2] = assay: LNCaP cell attachment and spreading on modified surface, visualized by microscope; type: cell-based, human; settings: 24 hr post-seeding, microscope images (FIG. 1), surface modified by compound vs BD BioCoat fibronectin
Experimental: (§1) To explore the ability of a surface modified by the compound of the present invention to mimic one or more functional characteristics of a fibronectin coated surface, cells were seeded and monitored on both such surfaces under the same culture conditions. In brief, LNCaP cells, MIA-PaCa-2, A-172, or RKO cells from ATCC were cultured according to supplier's instructions. LNCaP were cultured in RPMI-1640 Medium (ATCC Catalog No. 30-2001) supplemented with 10% fetal bovine serum. MIA-PaCa-2 and A-172 cells were grown in DMEM (Invitrogen cat #11885-084) supplemented with 10% fetal bovine serum. RKO cells were cultured in EMEM (ATCC cat#30-2003) supplemented with 10% fetal bovine serum. Cells were cultured at 37° C. in a humidified incubator with 5% CO2. For seeding, media was removed, cells were washed with PBS, and 3 ml of 0.25% Trypsin-EDTA was added to the cells in T-75 flask. Flasks were examined under the microscope, once cells detached from the surface, 10 ml culture media was added to neutralize Trypsin. Cells were transferred to a 15 ml. BD Falcon tube and centrifuged at 200×g for 10 min. Supernatant was removed and the cell pellet washed once with DMEM (Invitrogen cat #11885-084) having 200 microgram/ml BSA. Cells were resuspended in DMEM having 200 microgram/ml BSA and seeded at 50,000 cells/cm^2 in 1.0 ml media per well of a 24 well plate. […]

LNCaP cells [3] = assay: MTS assay quantification of LNCaP cell attachment; type: cell-based, human; settings: 24 hr post-seeding, FIG. 2, treated surface vs BD BioCoat fibronectin
Experimental: as §1, with “min.” for “min. Supernatant was removed and the cell pellet washed once with DMEM (Invitrogen cat #11885-084) having 200 microgram/ml BSA. Cells were resuspended in DMEM having 200 microgram/ml BSA and seeded at 50,000 cells/cm^2 in 1.0 ml media per well of a 24 well plate.”
In addition to the aforementioned visual analysis, MTS analysis was carried out to quantify the degree of cell attachment. […] Following incubation, 0.1 ml media was transferred to BD Falcon™ 96 well plate and absorbance was measured at 490 nm.

A-172 cells = assay: Confluence quantification by IncuCyte of A-172 cell attachment; type: cell-based, human; settings: FIG. 3, treated surface vs BD BioCoat fibronectin
Experimental: as §1

RKO cells = assay: Confluence quantification by IncuCyte of RKO cell attachment; type: cell-based, human; settings: FIG. 3, treated surface vs BD BioCoat fibronectin
Experimental: as §1

Sequence	cell attachment and spreading [1]	also measured
KSGRARADRVPHSRNTITLTNGGSGGSGGSGRGDSP (two regions of a fibronectin cell-binding domain joined by a flexible linker) [SEQ ID NO: 11]	supported cell attachment and spreading similar to a BD BioCoat fibronectin surface	–
KSGRARADRVPHSRNTITLTNSGSGSGSGSGRGDSP (two regions of a fibronectin cell-binding domain joined by a flexible linker) [SEQ ID NO: 10]	supported cell attachment and spreading similar to a BD BioCoat fibronectin surface	–
KSGRGRGDRVPHSRNGITLTNSGSGSGSGSGRGDSP (two regions of a fibronectin cell-binding domain joined by a flexible linker) [SEQ ID NO: 12]	supported cell attachment and spreading similar to a BD BioCoat fibronectin surface	–
KSGRPREDRVPHSRNSITLTNGGGSGGGSGGGRGDSP (two regions of a fibronectin cell-binding domain joined by a flexible linker) [SEQ ID NO: 9]	supported cell attachment and spreading similar to a BD BioCoat fibronectin surface	–
KSGRPREDRVPHSRNSITLTNSGSGSGSGSGRGDSP (two regions of a fibronectin cell-binding domain joined by a flexible linker) [SEQ ID NO: 7]	supported cell attachment and spreading similar to a BD BioCoat fibronectin surface	cell attachment and spreading (LNCaP cells [2]): comparable; LNCaP cell attachment (MTS assay, absorbance at 490 nm) (LNCaP cells [3]): comparable; confluence quantification by IncuCyte (A-172 cells): comparable; confluence quantification by IncuCyte (RKO cells): comparable
KSGRPREDRVPHSRNSITLTNSGTGSGTGSGRGDSP (two regions of a fibronectin cell-binding domain joined by a flexible linker) [SEQ ID NO: 8]	supported cell attachment and spreading similar to a BD BioCoat fibronectin surface	–

From patent US8921516B2, “Synthetic, defined fibronectin mimetic peptides and surfaces modified with the same” (Corning Incorporated, priority 2010, dated 2014)
